These are literature values, as cited in patent US20070141015A1, “TOPICAL ADMINISTRATION CARRIER COMPOSITION AND THERAPEUTIC FORMULATIONS COMPRISING SAME” (priority 2005, published 2007).

[1] abbreviates: antihypertensive use, chronic 30 mg/day.

For `Nc1cc(N2CCCCC2)nc(N)[n+]1[O-]` [Minoxidil], the “1 hour peak plasma level” value (antihypertensive use, after 5 mg starting dose) is “Antihypertensive: 1 hour peak after 5 mg starting dose: 60 ng/mL plasma;”. Further, under setting [1], the steady-state peak level was 250 ng/mL and the steady-state trough level is 40 ng/mL. For the setting “topical hair growth stimulant, 1 mL 2% b.i.d. dose”, the plasma level entry is listed as “Less than 2-30 ng/ML plasma”.
